Laboratory results as given in patent publication KR20110128542A, “Egcg를 유효성분으로 함유하는 쇼그렌 증후군, 베체트 증후군, 강직성척추염 또는 루프스의 예방 또는 치료용 조성물” (가톨릭대학교 산학협력단, priority 2010, dated 2011).
“Also recorded” adds a separate entry of the source.

Columns and labels:
[1] = test system: IL-17 produced from Th17 cells (Th17세포); assay: IL-17 production by mouse splenocytes under Th17 differentiation conditions (ELISA of culture medium, 3 days); format: cell-based; details: Th17 conditions (anti-CD3, anti-CD28, anti-IFNr, anti-IL-4, TGF beta), EGCG 0, 1, 10, 50 uM, Fig. 1
IL-17 mRNA = assay: RT-PCR of IL-17 mRNA in mouse splenocytes under Th17 differentiation conditions; format: cell-based; details: EGCG 0, 1, 10, 50 ng/ml, Fig. 2a
Foxp3 mRNA = assay: RT-PCR of Foxp3 mRNA in mouse splenocytes under Th17 differentiation conditions (Treg activation); format: cell-based; details: EGCG 0, 1, 10, 50 ng/ml, Fig. 2b
Treg cells (Treg 세포) [2] = assay: Treg cells in spleen of lupus syndrome mice, immunostaining (CD4, CD25, Foxp3) and confocal microscopy; format: in vivo, mouse; details: EGCG 10uM, intraperitoneal, 10 injections, Fig. 3
Th17 cells (Th17 세포) = assay: Th17 cells in spleen of lupus syndrome mice, immunostaining (CD4, IL-17) and confocal microscopy; format: in vivo, mouse; details: EGCG 10uM, intraperitoneal, 10 injections, confocal microscopy, Fig. 3
Treg cells (Treg 세포) [3] = assay: Treg population in splenocytes of lupus syndrome mice under Treg differentiation conditions, FACS (CD4, CD25, Foxp3); format: cell-based; details: lupus mouse splenocytes, anti-CD3 2 ug/ml + TGF beta 5ng/ml, EGCG 10ng/ml, 72 h

## O=C(O[C@@H]1Cc2c(O)cc(O)cc2O[C@@H]1c1cc(O)c(O)c(O)c1)c1cc(O)c(O)c(O)c1 [EGCG, (-)-epigallocatechin gallate]
[1]
  amount of IL-17 cytokine produced: EGCG를 처리하지 않은 군에 비해 현저하게 감소; also recorded: EGCG 농도 의존적으로 IL-17의 생성이 감소
IL-17 mRNA
  IL-17 expression (mRNA): 농도 의존적으로 점점 감소
Foxp3 mRNA
  Foxp3 expression (mRNA): EGCG를 처리하지 않은 군에 비해 현저하게 증가; also recorded: 농도 의존적으로 점점 증가
Treg cells (Treg 세포) [2]; CD4/CD25 co-expression
  Treg cell activation in spleen: 비장에서 Treg 세포가 활성화 되었음
Treg cells (Treg 세포) [2]; spleen, confocal microscopy
  Foxp3 expression in nucleus, compared with control: 대조군에 비해 많이 발현
Th17 cells (Th17 세포)
  IL-17 expression (degree of Th17 cell differentiation), compared with control: EGCG를 처리하지 않은 대조군이 처리한 군에 비해 녹색의 IL-17이 더 많이 발현
Treg cells (Treg 세포) [3]; Splenocyte, printed 'about 10-fold or more', read-out: increase of Treg cells compared with untreated group
  fold induction at 0.01 µg/mL: ≥ 10
Treg cells (Treg 세포) [3]; untreated control 2.69, Fig. 4
  Foxp3 expression: 21.57
